One block for each molecule: values may come before it. Positions of bridges follow the written chain, without caps; N, C: chain ends. Non-standard residues stand in square brackets, D forms with d. Residues, ends and D or L forms follow the SMILES beside them. R8 = C=CCCCCCC[C@@](C)(N)C(=O)O; S5 = C=CCCC[C@](C)(N)C(=O)O
Key:
LPL from bovine milk = molecular target: T1, LPL from bovine milk (Bos taurus, UniProt P11151); experiment: In vitro LPL activity assay (NEFA generation, ApoC2-deficient plasma substrate); assay type: biochemical; settings: 0-2 µM peptide, ApoC2-deficient plasma substrate, NEFA read-out, triplicates; for EC50: 0.83 nM bovine milk LPL, 30 min on ice then 37°C 1 h, read-out: EC50 for stimulating lipolysis (LPL activation); for in vitro LPL activation, dose response (result in words): bovine milk LPL, 37°C 1 h
T1 construct: LPL from bovine milk (Sigma-Aldrich); purchased Sigma-Aldrich; host or cells: bovine milk (natural source)
T1 sequence (P11151 29-478): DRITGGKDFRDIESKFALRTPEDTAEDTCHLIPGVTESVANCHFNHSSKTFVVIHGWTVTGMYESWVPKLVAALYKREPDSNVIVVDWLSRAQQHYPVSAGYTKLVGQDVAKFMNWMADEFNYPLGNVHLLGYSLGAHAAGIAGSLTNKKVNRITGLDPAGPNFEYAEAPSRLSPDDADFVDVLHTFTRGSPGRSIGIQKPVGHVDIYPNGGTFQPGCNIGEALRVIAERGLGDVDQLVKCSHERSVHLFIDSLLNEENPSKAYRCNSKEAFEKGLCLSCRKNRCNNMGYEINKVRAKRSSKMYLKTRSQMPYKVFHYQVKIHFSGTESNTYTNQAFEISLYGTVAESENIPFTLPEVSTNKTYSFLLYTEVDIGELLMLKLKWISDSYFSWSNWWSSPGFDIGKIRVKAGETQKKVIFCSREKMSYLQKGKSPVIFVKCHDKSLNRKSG
Experimental: LPL activity was determined by measuring the generation of non-esterified fatty acids (NEFA). In a 96-well plate, 0–2 µM of an ApoC2 mimetic peptide, 0.83 nM of LPL from bovine milk (Sigma-Aldrich), ApoC2-deficient ethylenediaminetetraacetic acid (EDTA)-plasma (diluted with PBS to a final TG concentration of 0.67 mg/dl), 2 IU/ml heparin, 0.2% fatty acids free bovine serum albumin (BSA) (ICN Biomedicals), and PBS (Life Technologies) were combined in a final reaction volume of 50 μl. The reaction mixture was pre-incubated on ice for 30 min and incubated at 37°C for 1 h. NEFA were measured with a coupled enzyme reaction (Wako Diagnostics) in a Synergy H1 microplate reader (BioTek, USA).

[1] = DMPC vesicle clearance (solubilization) assay; assay type: physicochemical; settings: peptide 0-100 µM in 20 mM TRIS pH 8.2, DMPC vesicles 0.5 mg/ml in PBS, absorbance 660 nm, 1 h, 24°C
Experimental: Dimyristoyl Phosphatidyl Choline (DMPC) (Avanti 850345C) vesicles were made by sonication (0.5 mg/ml) in phosphate buffer saline (PBS). Peptides (0, 25, 50 and 100 µM) in 20 mM TRIS, pH 8.2 were added to DMPC vesicles (0.5 mg/ml) prepared by sonication in PBS and turbidity was monitored in a Victor^3 plate reader (Perkin Elmer, USA) by monitoring absorbance at 660 nm for 1 h at 24°C. Samples were shaken at 300 RPM. Absorbance over time was plotted and areas-under-the-curve (AOC) were calculated. PBS was used as a negative control sample and Triton X-100 at a final concentration of 1% (w/v) was used as positive control.

[2] = Circular dichroism spectroscopy; assay type: physicochemical; settings: CD 190-250 nm
Experimental: Circular dichroism (CD) spectra were acquired on a Chirascan Q100 spectrometer. CD spectra were recorded in the190–250 nm range, using a 0.1 cm quartz cell and analyzed with Bettsele® on-line software ([24]).

Proteinase K = Proteinase K (Parengyodontium album, UniProt P06873); assay type: in vitro ADME; settings: peptide 0.1 mM, 16 ug/kg Proteinase K, 20 mM ammonium bicarbonate pH 8.2, 37°C, MALDI-TOF with internal standards, first time point 3 h, triplicates
Experimental: (§1) Peptides (0.1 mM) were incubated at 37°C in 20 mM ammonium bicarbonate buffer at pH 8.2, with 10 ug/ml trypsin or […] Proteinase K. To test resistance to Pepsin, peptides (0.1 mM) were incubated with Pepsin (3 mg/ml) in 0.02M acetate buffer (pH 2). The amount of intact peptide was monitored over time by Matrix-assisted laser desorption/ionization time-of-flight (MALDI-TOF) on a Bruker Autoflex III instrument (Bruker Optics, Inc., USA). Internal standards (Bombesin, ACTH (1–17), ACTH (18–39) and Insulin) were used to quantify the relative amount of peptide in each sample.

Pepsin = experiment: Peptide proteolysis resistance, pepsin; assay type: in vitro ADME; settings: peptide 0.1 mM, pepsin 3 mg/ml, 0.02M acetate buffer pH 2, 1 h, MALDI-TOF with internal standards, triplicates
Experimental: as §1

Apoc2^h/h mice = experiment: Plasma lipids in ApoC2-hypomorphic mice after peptide injection; assay type: in vivo, mouse; settings: single IP 1 umole/kg, n = 5
Experimental: ApoC2–hypomorphic mice (Apoc2^h/h) ([25]) and human ApoC3-transgenic (hAPOC3-tg) mice ([26]) were fed a regular rodent chow diet (NIH-31 chow diet: Zeigler Brothers Inc.). Peptides dissolved in 20 mM TRIS (pH 8.2) or vehicle control were injected intraperitoneally or intravenously at the indicated concentrations. Blood samples were collected from the retro-orbital sinus with a heparinized capillary tube. Whole blood was centrifuged at 1,000 g for 20 min at 4°C to obtain plasma. All animal procedures were approved by the National Heart, Lung, and Blood Institute Animal Care and Use Committee (protocol #H-0050).

trypsin = experiment: Peptide proteolysis resistance, trypsin; assay type: in vitro ADME; settings: peptide 0.1 mM, 10 ug/ml trypsin, 20 mM ammonium bicarbonate pH 8.2, 37°C, MALDI-TOF with internal standards, first time point 3 h, triplicates
Experimental: as §1

Sequence of Proteinase K (P06873 106-384): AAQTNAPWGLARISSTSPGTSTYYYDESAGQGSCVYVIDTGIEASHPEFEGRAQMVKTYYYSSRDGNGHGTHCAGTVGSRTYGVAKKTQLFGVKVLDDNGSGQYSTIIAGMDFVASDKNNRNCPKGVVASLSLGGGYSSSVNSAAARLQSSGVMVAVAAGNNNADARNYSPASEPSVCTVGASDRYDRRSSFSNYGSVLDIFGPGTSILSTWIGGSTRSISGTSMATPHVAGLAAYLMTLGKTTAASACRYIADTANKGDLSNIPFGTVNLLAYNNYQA

Compound: CC[C@H](C)[C@H](NC(=O)CNC(=O)[C@]1(C)CCCC=CCCCCCC[C@@](C)(NC(=O)[C@H](CO)NC(=O)[C@H](CCCCN)NC(=O)[C@H](CO)NC(=O)[C@H](Cc2ccc(O)cc2)NC(=O)[C@H](CC(C)C)NC(=O)[C@H](CC(=O)O)NC(=O)[C@H](CCCNC(=N)N)NC(=O)[C@H](CC(C)C)NC(=O)[C@H](CCCCN)NC(=O)[C@@H](N)CCC(=O)O)C(=O)N[C@@H](C)C(=O)N[C@@H](C)C(=O)N[C@@H](CCSC)C(=O)N[C@@H](CO)C(=O)N[C@@H]([C@@H](C)O)C(=O)N[C@@H](Cc2ccc(O)cc2)C(=O)N1)C(=O)N[C@@H](Cc1ccccc1)C(=O)N[C@H](C(=O)N[C@@H](CC(=O)O)C(=O)N[C@@H](CCC(N)=O)C(=O)N[C@H](C(=O)N[C@@H](CC(C)C)C(=O)N[C@@H](CO)C(=O)N[C@H](C(=O)N[C@@H](CC(C)C)C(=O)N[C@@H](CCCCN)C(=O)NCC(=O)N[C@@H](CCC(=O)O)C(=O)N[C@@H](CCC(=O)O)C(=O)O)C(C)C)C(C)C)[C@@H](C)O [P3] (H-EKLRDLYSKS[R8]AAMSTY[S5]GIFTDQVLSVLKGEE-OH; staple 11-18)
- EC50 (LPL from bovine milk): 25 to 33 nM

Compound: CC[C@H](C)[C@@H]1NC(=O)CNC(=O)[C@H]([C@@H](C)O)NC(=O)[C@H](Cc2ccc(O)cc2)NC(=O)[C@H]([C@@H](C)O)NC(=O)[C@](C)(NC(=O)[C@H](CCSC)NC(=O)[C@H](C)NC(=O)[C@H](C)NC(=O)[C@@H](NC(=O)[C@H](CO)NC(=O)[C@H](CCCCN)NC(=O)[C@H](CO)NC(=O)[C@H](Cc2ccc(O)cc2)NC(=O)[C@H](CC(C)C)NC(=O)[C@H](CC(=O)O)NC(=O)[C@H](CCCNC(=N)N)NC(=O)[C@H](CC(C)C)NC(=O)[C@H](CCCCN)NC(=O)[C@@H](N)CCC(=O)O)[C@@H](C)O)CCCCCCC=CCCC[C@@](C)(C(=O)N[C@@H](CC(=O)O)C(=O)N[C@@H](CCC(N)=O)C(=O)N[C@H](C(=O)N[C@@H](CC(C)C)C(=O)N[C@@H](CO)C(=O)N[C@H](C(=O)N[C@@H](CC(C)C)C(=O)N[C@@H](CCCCN)C(=O)NCC(=O)N[C@@H](CCC(=O)O)C(=O)N[C@@H](CCC(=O)O)C(=O)O)C(C)C)C(C)C)NC(=O)[C@H](Cc2ccccc2)NC1=O [P5] (H-EKLRDLYSKSTAAM[R8]TYTGIF[S5]DQVLSVLKGEE-OH; staple 15-22)
- EC50 (LPL from bovine milk): 25 to 33 nM

Compound: CCCCCCCC(=O)NC(C)(C)C(=O)N[C@@H](CCCC)C(=O)N[C@]1(C)CCCCCCC=CCCCC2(CCCC=CCCCCCC[C@@](C)(C(=O)N[C@@H](CCCCN)C(=O)N(C)CC(=O)N[C@H](CCC(=O)O)C(=O)N[C@H](CCC(=O)O)C(=O)O)NC(=O)[C@H](C(C)C)NC(=O)[C@H](CO)NC(=O)[C@H](CC(C)C)NC(=O)[C@H](C(C)C)NC(=O)[C@H](CCC(N)=O)NC(=O)[C@H](CC(=O)O)NC2=O)NC(=O)[C@H](Cc2ccccc2)NC(=O)[C@H]([C@@H](C)CC)NC(=O)CNC(=O)[C@H]([C@@H](C)O)NC(=O)[C@H](Cc2ccc(O)cc2)NC(=O)[C@H]([C@@H](C)O)NC1=O (some centres unmarked) [SP2a]
- secondary structure by CD (result in words) [2]: highly helical
- intact full-length peptide after Proteinase K incubation (Proteinase K): highly resistant to proteolysis
- intact full-length peptide after pepsin incubation (Pepsin): highly resistant to proteolysis
- plasma triglycerides, 1-hour time point (Apoc2^h/h mice; 1 h, compared with D6PV): possibly less effective
- plasma triglycerides, 3-hour time point (Apoc2^h/h mice; 3 h): lowered plasma triglycerides like D6PV
- in vitro LPL activation, dose response (result in words) (LPL from bovine milk): more potent than SP1 and D6PV
- intact full-length peptide after trypsin incubation (trypsin): highly resistant to proteolysis

Results, then the molecule that gave them:

- in vitro LPL activation, dose response (result in words) (LPL from bovine milk): just as active
Compound: CC[C@H](C)[C@@H]1NC(=O)CNC(=O)[C@H]([C@@H](C)O)NC(=O)[C@H](Cc2ccc(O)cc2)NC(=O)[C@H]([C@@H](C)O)NC(=O)[C@](C)(NC(=O)[C@H](CCSC)NC(=O)[C@H](C)N)CCCCCCC=CCCC[C@@](C)(C(=O)N[C@@H](CC(=O)O)C(=O)N[C@@H](CCC(N)=O)C(=O)N[C@H](C(=O)N[C@@H](CC(C)C)C(=O)N[C@@H](CO)C(=O)N[C@H](C(=O)N[C@@H](CC(C)C)C(=O)N[C@@H](CCCCN)C(=O)NCC(=O)N[C@@H](CCC(=O)O)C(=O)N[C@@H](CCC(=O)O)C(=O)O)C(C)C)C(C)C)NC(=O)[C@H](Cc2ccccc2)NC1=O [P6] (H-AM[R8]TYTGIF[S5]DQVLSVLKGEE-OH; staple 3-10 (inferred); N-terminus and C-terminus assumed)

- DMPC vesicle solubilization [1]: inactive
Compound: CC[C@H](C)[C@H](NC(=O)CNC(=O)[C@@H](NC(=O)[C@H](Cc1ccc(O)cc1)NC(=O)[C@@H](NC(=O)[C@H](CO)NC(=O)[C@H](CCSC)NC(=O)[C@H](C)N)[C@@H](C)O)[C@@H](C)O)C(=O)N[C@@H](Cc1ccccc1)C(=O)N[C@H](C(=O)N[C@@H](CC(=O)O)C(=O)N[C@@H](CCC(N)=O)C(=O)N[C@H](C(=O)N[C@@H](CC(C)C)C(=O)N[C@@H](CO)C(=O)N[C@H](C(=O)N[C@@H](CC(C)C)C(=O)N[C@@H](CCCCN)C(=O)NCC(=O)N[C@@H](CCC(=O)O)C(=O)N[C@@H](CCC(=O)O)C(=O)O)C(C)C)C(C)C)[C@@H](C)O [P8, reference compound] (H-AMSTYTGIFTDQVLSVLKGEE-OH)

Reference: publication PMC10403075, “Short hydrocarbon stapled ApoC2-mimetic peptides activate lipoprotein lipase and lower plasma triglycerides in mice” (Frontiers in Cardiovascular Medicine, 2023)
